Calls of active or inactive are those of the source. No rule for the calls is given here.
Each compound was assayed against Trace amine-associated receptor 1 (Homo sapiens) (UniProt Q96RJ0) (assay: TAAR1 agonists in human receptor cells, SAR follow-up, cell-based, fluorescence, MedChem round 2 (AID 1053181)). Conditions: TAAR1-expressing cells, fluorescence agonist read-out.
Chain of Trace amine-associated receptor 1 (Homo sapiens) (Q96RJ0 whole entry, looked up, the tested form may be a part): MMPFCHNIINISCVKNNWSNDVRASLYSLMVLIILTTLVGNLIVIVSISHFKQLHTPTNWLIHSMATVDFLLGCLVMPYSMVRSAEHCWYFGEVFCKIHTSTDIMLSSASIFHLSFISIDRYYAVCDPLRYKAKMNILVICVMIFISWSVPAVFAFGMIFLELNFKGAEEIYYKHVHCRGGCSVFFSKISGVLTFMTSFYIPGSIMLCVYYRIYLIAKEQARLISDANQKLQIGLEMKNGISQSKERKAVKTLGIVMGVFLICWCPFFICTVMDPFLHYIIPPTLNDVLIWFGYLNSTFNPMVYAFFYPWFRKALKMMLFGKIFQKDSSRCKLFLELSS

Which EC50 does the source give for COc1cc(C(=O)CCN2CCC(c3ccccc3)C2)cc(OC)c1OC (configuration not stated) here?
Its EC50 is 419 nM.

Which EC50 does the source give for N#Cc1c(C(F)(F)F)cc(-c2ccc(Cl)cc2)nc1SCC(=O)Nc1ncccn1 here?
The EC50 was 3.74 nM.

O=C(CCN1CCC(c2ccccc2)C1)c1ccccc1 (configuration not stated) was tested. Which EC50 did it give?
Its EC50 is 765 nM.

Which EC50 does the source give for CC(CN1CCCC1Cc1ccccc1)C(=O)c1ccc2c(c1)OCCO2 (configuration not stated) here?
The EC50 was 2960 nM.

For N#Cc1c(C(F)(F)F)cc(-c2ccc(Cl)cc2)nc1SCC(=O)N1CCCCCC1, which EC50 is on record?
Its EC50 is > 29900 nM (inactive).

Cc1ccc(C(=O)CCN2CCC(c3ccccc3)C2)cc1 (configuration not stated) was tested. Which EC50 did it give?
The EC50 was 672 nM.

Which EC50 does the source give for N#Cc1c(C(F)(F)F)cc(-c2ccc(Cl)cc2)nc1SCC(=O)N1CCCC1 here?
Its EC50 is 1070 nM.
